Where two headings read alike, the source gives them in different places. Marks after values point to notes of the source that are not given here.
Tests used:
[1] = system: H9C2 cardiomyocytes; settings: 6 h hypoxia, 12 h reoxygenation, CCK 450 nm
Experimental: H9C2 cardiomyocytes in the logarithmic growth phase were seeded into 96-well plates at a density of 7×10^4 cells/mL, with 100 μL per well.
After 24 hours of culture, the culture medium of the H/R and drug-treated groups was replaced with serum-free glucose-free DMEM medium (100 μL per well). The cells were then placed in an anaerobic incubator and cultured under hypoxic conditions in a 37° C. cell culture incubator. After 6 hours, the supernatant of the H/R and drug-treated groups was removed and replaced with high-glucose medium containing 10% fetal bovine serum (100 μL per well). Each drug-treated group received the corresponding concentration of the drug, while the H/R model group and the blank control group received an equal volume of DMSO.
After removing the supernatant, 100 μL of CCK solution (the volume of CCK accounted for 10% of the DMEM culture medium volume) was added to each well. The cells were cultured in the cell culture incubator for 1 hour, and the absorbance was measured at 450 nm using a microplate reader to calculate the cell viability. Cell viability was calculated as follows: Cell viability (%)=(Experimental well-Blank well)/(Control well-Blank well)×100%.

[2] = system: H9C2 cardiomyocytes; assay: Angiotensin II (Ang II)-induced cardiomyocyte hypertrophy model, crystal violet, cell surface area; type: cell-based, rat; settings: for number of cardiomyocytes (decrease in cell number caused by AngII): 0.5 μM and 1 μM, 40 μM AngII 24 h; for surface area of a single cardiomyocyte, View 1 / surface area of a single cardiomyocyte, View 2 / surface area of a single cardiomyocyte, View 3 / surface area of a single cardiomyocyte, View 4 / surface area of a single cardiomyocyte, View 5 / Myocardial surface area: 40 μM Ang II 24 h; for surface area of a single cardiomyocyte, View 1: field of view 1; for surface area of a single cardiomyocyte, View 2: field of view 2; for surface area of a single cardiomyocyte, View 3: field of view 3; for surface area of a single cardiomyocyte, View 4: field of view 4; for surface area of a single cardiomyocyte, View 5: field of view 5; for Myocardial surface area: mean of 5 views
Experimental: Adjust the H9C2 cardiomyocytes in the logarithmic growth phase to a density of 1.2×10^5 cells/well and inoculate them into six-well plates. […] After culturing for 24 hours, the drug administration groups are added with 40 μM Ang II and the corresponding concentrations of drugs. The Ang II+diltiazem 10 μM group is added with 40 μM Ang II and 10 μM diltiazem. The Ang II model group is added with 40 μM Ang II and an equal volume of DMSO. The blank control group is added with an equal volume of DMSO. Then, continue culturing for 24 hours. Discard the culture medium, wash the cells 3 times with PBS. Add 1 mL of methanol to each well and fix the cells at −20° C. for 20 minutes, and then let them return to room temperature. After discarding the methanol, add 1 mL of 0.5% crystal violet staining solution to each well and stain for 10 minutes. Wash the cells with clean water and take pictures under an inverted microscope. Randomly select fields of view for photographing. Use Image J software to measure the sum of the surface areas of all cardiomyocytes in the field of view and count the number of cells in the field of view at the same time to obtain the surface area of each cardiomyocyte. The surface area of a single cardiomyocyte=the sum of the surface areas of all cardiomyocytes in the field of view/the number of cardiomyocytes in the field of view.

[3] = system: mice with isoproterenol (ISO)-induced ischemic heart disease; assay: ISO-induced ischemic heart disease mouse model: serum CK-MB (ELISA); type: in vivo
Experimental: Male C57BL/6 mice were allowed to acclimate to the environment and then randomly divided into 9 groups, namely the blank control group, the ISO model group, the ISO+diltiazem 20 mg/kg positive control drug group, the ISO+Formula I (0.1, 0.5, 2 mg/kg) groups, and the ISO+Formula II (0.1, 0.5, 2 mg/kg) groups. Mice in the drug administration groups were intragastrically administered the corresponding doses of Formula I and Formula II compounds once a day at the same time. Mice in the positive drug diltiazem group were intragastrically administered the corresponding dose of diltiazem once a day. Mice in the blank control group and the model group were given the same amount of solvent (0.5% CMC-Na). The administration volume was 10 mL/kg, and the administration was continuous for 11 days.
From the 4th to the 10th day of drug administration, ISO modeling was carried out. The blank control group was subcutaneously injected with normal saline, and mice in the other groups were subcutaneously injected with ISO at a dose of 40 mg/kg (modeling was performed 2 hours after drug administration), for a total of 7 times.
Myocardial enzyme CK-MB detection: After the administration ended, blood was collected from the animals by enucleation. The blood was left to stand at room temperature for 2 hours, and then centrifuged at 3500 rpm for 20 minutes to separate the serum. The content of CK-MB in the serum was determined according to the instructions of the ELISA kit.

[4] = system: Rat H9C2 cardiomyocytes; settings: 50 μM Ang II 24 h, MTT 570 nm
Experimental: Rat H9C2 cardiomyocytes in the logarithmic growth phase were seeded at a density of 7×10^4 cells/mL into 96-well plates, with 100 μL per well. […] After 24 hours of culture, the drug treatment groups were respectively added with 50 μM Ang II and the corresponding concentration of the drug. The Ang II model group was added with 50 μM Ang II and an equal volume of DMSO, and the blank control group was added with an equal volume of DMSO. Then, the cells were cultured for another 24 hours. After removing the supernatant, 100 μL of MTT solution (0.5 mg/mL) was added to each well, and the plates were placed in an incubator for 4 hours. After removing the supernatant again, 150 μL of DMSO was added to each well, and the mixture was shaken and mixed evenly for 10 minutes. The absorbance was measured at 570 nm using a microplate reader to calculate the cell viability.
Cell viability (%)=[(As−Ab)/(Ac−Ab)]×100% • As: Experimental well (culture medium containing cells, MTT, Ang II); • Ac: Control well (culture medium containing cells, MTT, without Ang II); • Ab: Blank well (culture medium without cells, MTT, without Ang II).

[5] = 0.1 mg/kg intragastric once a day 11 days
[6] = 0.5 mg/kg intragastric once a day 11 days
[7] = 2 mg/kg intragastric once a day 11 days

Compound	OD ([1]; 0.1 μM)	OD ([1]; 0.3 μM)	OD ([1]; 1 μM)	OD ([1]; 3 μM)	OD ([1]; 5 μM)	OD ([1]; 10 μM)	number of cardiomyocytes (decrease in cell number caused by AngII) ([2]; 0.1 μM)	surface area of a single cardiomyocyte, View 1 ([2]; 0.1 μM) [μm^2]	surface area of a single cardiomyocyte, View 2 ([2]; 0.1 μM) [μm^2]	surface area of a single cardiomyocyte, View 3 ([2]; 0.1 μM) [μm^2]	surface area of a single cardiomyocyte, View 4 ([2]; 0.1 μM) [μm^2]	surface area of a single cardiomyocyte, View 5 ([2]; 0.1 μM) [μm^2]	Myocardial surface area ([2]; 0.1 μM)	surface area of a single cardiomyocyte, View 1 ([2]; 0.5 μM) [μm^2]	surface area of a single cardiomyocyte, View 2 ([2]; 0.5 μM) [μm^2]	surface area of a single cardiomyocyte, View 3 ([2]; 0.5 μM) [μm^2]	surface area of a single cardiomyocyte, View 4 ([2]; 0.5 μM) [μm^2]	surface area of a single cardiomyocyte, View 5 ([2]; 0.5 μM) [μm^2]	Myocardial surface area ([2]; 0.5 μM)	surface area of a single cardiomyocyte, View 1 ([2]; 1 μM) [μm^2]	further results
O=c1c(Cc2ccc3c(c2)OCO3)coc2cc(O)cc(O)c12 [Formula I]	0.630 ± 0082	0.628 ± 0.061	0.576 ± 0.063	0.620 ± 0.069	0.566 ± 0.074^(p = 0.07)	0.575 ± 0.091	significantly improve the decrease in cell number caused by AngII	362.68	351.69	344.78	338.55	410.64	361.67 ± 25.76^### μm^2	404.40	360.65	322.34	283.2	334.96	341.11 ± 40.33^### μm^2	312.97	surface area of a single cardiomyocyte, View 2 ([2]; 1 μM): 300.38 μm^2; surface area of a single cardiomyocyte, View 3 ([2]; 1 μM): 328.43 μm^2; surface area of a single cardiomyocyte, View 4 ([2]; 1 μM): 331.13 μm^2; surface area of a single cardiomyocyte, View 5 ([2]; 1 μM): 303.72 μm^2; Myocardial surface area ([2]; 1 μM): 315.33 ± 12.53^### μm^2; CK-MB [3, 5]: 14.86 ± 2.90 ng/mL; CK-MB [3, 6]: 13.71 ± 2.75 ng/mL; CK-MB [3, 7]: 15.05 ± 2.49 ng/mL; OD ([4]; 0.1 μM): 0.809 ± 0.060; OD ([4]; 0.3 μM): 0.780 ± 0.046; OD ([4]; 1 μM): 0.791 ± 0.043; OD ([4]; 3 μM): 0.816 ± 0.035; OD ([4]; 10 μM): 0.823 ± 0.048
Cc1c(O)cc(O)c2c(=O)c(Cc3ccc4c(c3)OCO4)coc12 [Formula II, 3-(benzo[d][1,3]dioxol-5-ylmethyl)-5,7-dihydroxy-8-methyl-4H-chromen-4-one]	0.630 ± 0.070	0.612 ± 0.059	0.542 ± 0.075	0.640 ± 0.070	0.466 ± 0.023	0.498 ± 0.071	significantly improve the decrease in cell number caused by AngII	346.49	347.86	326.61	381.47	353.63	351.21 ± 17.66^### μm^2	420.10	338.84	355	334.83	342.18	358.19 ± 31.68^### μm^2	365.93	surface area of a single cardiomyocyte, View 2 ([2]; 1 μM): 372.44 μm^2; surface area of a single cardiomyocyte, View 3 ([2]; 1 μM): 366.76 μm^2; surface area of a single cardiomyocyte, View 4 ([2]; 1 μM): 392.9 μm^2; surface area of a single cardiomyocyte, View 5 ([2]; 1 μM): 373.9 μm^2; Myocardial surface area ([2]; 1 μM): 374.39 ± 9.76^### μm^2; CK-MB [3, 5]: 15.48 ± 1.76 ng/mL; CK-MB [3, 6]: 12.89 ± 2.29 ng/mL; CK-MB [3, 7]: 12.91 ± 1.53 ng/mL; OD ([4]; 0.1 μM): 0.876 ± 0.044; OD ([4]; 0.3 μM): 0.791 ± 0.062; OD ([4]; 1 μM): 0.835 ± 0.052; OD ([4]; 3 μM): 0.785 ± 0.048; OD ([4]; 10 μM): 0.814 ± 0.053

From US20260285849A1, “METHYLOPHIOPOGONONE A DERIVATIVE, AND PREPARATION AND USE THEREOF” (INSTITUTE OF MATERIA MEDICA, CHINESE ACADEMY OF MEDICAL …, priority 2022, published 2026)
